Assays:
[1] = target: BRD4(1) (Homo sapiens, UniProt O60885); experiment: BRD4(1) ligand-displacement AlphaScreen; assay type: binding; set-up: substituting protein and biotin-probe components for BRD4(1) protein at 20 nM final; His tag (inferred from Ni-coated acceptor beads)
[2] = target: T1, BRD9 (Homo sapiens, UniProt Q9H8M2); experiment: BRD9-ligand displacement AlphaScreen; assay type: binding
T1 construct: A construct of human BRD9 covering residues 134-0245 in the pET28PP vector; made in house; host or cells: E. coli BL21 (DE3)
T1 sequence (Q9H8M2 134-245 limits assumed): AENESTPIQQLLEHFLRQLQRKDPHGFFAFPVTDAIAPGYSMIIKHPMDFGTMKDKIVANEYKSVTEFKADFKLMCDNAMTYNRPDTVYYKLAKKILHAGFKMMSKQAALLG
Procedure: BRD9 assays were performed with minimal modifications from the manufacturer's protocol (PerkinElmer, USA). All reagents were diluted in 50 mM HEPES, 150 mM NaCl, 0.1% w/v BSA, 0.01% w/v Tween20, pH 7.5. […] Plates were spun down at 150×g, and 100 nL of DMSO compound stock was added from pre-diluted plates by pin transfer using a Janus Workstation (PerkinElmer, USA). Under low light, a 2× suspension of Ni-coated Acceptor Beads and Streptavidin Donor Beads, was then added at 10 ul/well to a final concentration of 5 μg/ml by EL406 automated liquid handler (Biotek, USA).

[3] = target: T2, CRBN-DDB1 (Homo sapiens, UniProt Q96SW2); experiment: CRBN-DDB1 ligand-displacement AlphaScreen; assay type: binding; conditions: for IC50: purified CRBN-DDB1 ligand displacement
T2 construct: made in house; host or cells: Sf9 cells (Invitrogen)
Procedure: Following a 30 min incubation, 20 uL detection solution containing Streptavidin Donor Beads and Nickel Chelate AlphaLISA® Acceptor Beads diluted to 20 ng/uL in assay buffer was added to each well.

[4] = target: BRD9:CRBN-DDB1 protein complex (Homo sapiens, UniProt Q96SW2+Q9H8M2); experiment: BRD9:CRBN-DDB1 dimerization assay (luminescence); conditions: for BRD9:CRB9-DDB1 AUC / BRD9:CRB9-DDB1 Cmax: luminescence detection of dimerization assay; for formation of the BRD9:CRBN-DDB1 protein complex: relative to unmodified thalidomide, in words
Procedure: To measure this activity, a homogenous luminescence assay was developed to report on compound-induced proximity of BRD9 and CRBN.
To detect CRBN-DDBI/BRD4 dimerization, we adapted bead-based AlphaScreen technology. […] Compounds were then pinned at 100 nL per well from DMSO stock. After 1 incubation at room temperature. Nickel Chelate AlphaLISA Acceptor and Glutathione AlphaLISA Donor beads (PerkinElmer) were diluted in assay buffer to 20 μg/mL and added at 20 μl per well.

[5] = target: T3, BRD9 (Homo sapiens, UniProt Q9H8M2); experiment: BRD9 immunoblot in MOLM-13; conditions: MOLM-13, 4 hour treatment, indicated concentrations; in words
T3 sequence (Q9H8M2 1-597): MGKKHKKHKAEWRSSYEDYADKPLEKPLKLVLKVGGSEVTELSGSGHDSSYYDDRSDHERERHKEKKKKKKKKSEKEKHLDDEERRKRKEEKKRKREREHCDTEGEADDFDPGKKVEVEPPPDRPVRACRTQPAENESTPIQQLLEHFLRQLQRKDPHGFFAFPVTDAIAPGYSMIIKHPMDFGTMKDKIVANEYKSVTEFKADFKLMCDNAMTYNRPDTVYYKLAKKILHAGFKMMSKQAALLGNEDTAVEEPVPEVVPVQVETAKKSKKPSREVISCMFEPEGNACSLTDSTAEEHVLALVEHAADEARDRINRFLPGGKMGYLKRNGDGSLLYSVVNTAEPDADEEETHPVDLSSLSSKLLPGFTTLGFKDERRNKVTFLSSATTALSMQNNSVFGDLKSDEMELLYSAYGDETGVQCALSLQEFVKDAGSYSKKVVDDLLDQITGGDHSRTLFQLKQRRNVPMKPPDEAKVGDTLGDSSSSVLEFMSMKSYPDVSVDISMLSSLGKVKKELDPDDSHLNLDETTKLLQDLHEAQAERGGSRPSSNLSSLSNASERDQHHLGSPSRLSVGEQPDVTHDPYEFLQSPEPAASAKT
Procedure: In additional experiments, cells were washed with PBS, before being lysed in RIPA buffer supplemented with 1×HALT™ protease inhibitor cocktail (Thermo Scientific) for 10 min on ice, followed by low-amplitude sonication for 10 seconds at 4° C. […] In soluble material was removed by centrifugation at 20,000×g for 20 min before protein content was quantified by BCA assay (Pierce). […] Blots were imaged using fluorescence-labeled secondary antibodies (LI-COR) on the OdysseyCLxImager (LI-COR).

[6] = target: T3, BRD9; experiment: BRD9 degradation / cellular activity (Western blot, cell line not stated); conditions: cell line not given

T2 sequence (Q96SW2 whole entry): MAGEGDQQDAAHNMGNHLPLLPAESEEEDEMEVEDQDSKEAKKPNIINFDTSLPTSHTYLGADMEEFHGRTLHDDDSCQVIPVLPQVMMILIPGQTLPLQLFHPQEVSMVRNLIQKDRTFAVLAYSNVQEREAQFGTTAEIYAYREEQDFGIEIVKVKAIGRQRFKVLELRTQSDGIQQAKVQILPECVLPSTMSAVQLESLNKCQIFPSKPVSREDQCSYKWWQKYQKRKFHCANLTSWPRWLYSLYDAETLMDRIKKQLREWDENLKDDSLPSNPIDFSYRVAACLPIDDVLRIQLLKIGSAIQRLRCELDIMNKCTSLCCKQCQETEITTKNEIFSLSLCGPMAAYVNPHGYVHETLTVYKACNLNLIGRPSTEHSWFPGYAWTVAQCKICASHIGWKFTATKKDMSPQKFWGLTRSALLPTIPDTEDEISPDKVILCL
T2 sequence (Q16531 whole entry partner): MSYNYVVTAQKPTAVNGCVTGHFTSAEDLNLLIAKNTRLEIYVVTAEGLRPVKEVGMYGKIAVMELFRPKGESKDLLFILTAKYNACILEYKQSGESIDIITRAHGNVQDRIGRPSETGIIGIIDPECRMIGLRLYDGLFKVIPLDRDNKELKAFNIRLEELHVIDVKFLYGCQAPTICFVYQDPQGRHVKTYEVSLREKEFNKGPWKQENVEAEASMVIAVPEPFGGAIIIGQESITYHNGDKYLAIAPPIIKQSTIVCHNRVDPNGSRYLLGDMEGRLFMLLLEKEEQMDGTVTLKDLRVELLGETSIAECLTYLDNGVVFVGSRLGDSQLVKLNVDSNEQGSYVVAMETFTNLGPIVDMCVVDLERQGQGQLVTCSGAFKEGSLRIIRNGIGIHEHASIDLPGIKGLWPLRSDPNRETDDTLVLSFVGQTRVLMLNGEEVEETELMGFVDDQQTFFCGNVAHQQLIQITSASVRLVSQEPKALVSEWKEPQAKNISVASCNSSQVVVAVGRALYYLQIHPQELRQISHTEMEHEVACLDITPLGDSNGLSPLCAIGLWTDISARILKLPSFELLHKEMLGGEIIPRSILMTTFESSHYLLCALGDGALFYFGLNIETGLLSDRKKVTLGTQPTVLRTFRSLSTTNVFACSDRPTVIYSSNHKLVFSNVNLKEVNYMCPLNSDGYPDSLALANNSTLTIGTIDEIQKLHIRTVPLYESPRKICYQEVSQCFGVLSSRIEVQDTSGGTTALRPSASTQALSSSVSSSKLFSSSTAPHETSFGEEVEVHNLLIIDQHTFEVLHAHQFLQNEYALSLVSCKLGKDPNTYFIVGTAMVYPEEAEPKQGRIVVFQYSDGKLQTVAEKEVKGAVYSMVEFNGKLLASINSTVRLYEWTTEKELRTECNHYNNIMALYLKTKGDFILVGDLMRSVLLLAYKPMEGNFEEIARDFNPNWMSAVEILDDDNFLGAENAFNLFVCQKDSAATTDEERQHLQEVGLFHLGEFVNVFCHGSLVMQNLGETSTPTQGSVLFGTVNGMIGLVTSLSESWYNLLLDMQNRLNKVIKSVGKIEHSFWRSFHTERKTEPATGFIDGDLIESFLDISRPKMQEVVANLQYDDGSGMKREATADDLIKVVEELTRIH
Sequence of BRD9:CRBN-DDB1 protein complex (Q96SW2 whole entry, one chain of several): as the sequence (Q96SW2 whole entry) above
Sequence of BRD9:CRBN-DDB1 protein complex (Q16531 whole entry partner, one chain of several): as the sequence (Q16531 whole entry partner) above

IC50 [1] [nM]	IC50 [2] [nM]	IC50 [3] [nM]	BRD9:CRB9-DDB1 AUC [4]	BRD9:CRB9-DDB1 Cmax [4] [nM]	BRD9 protein level (immunoblot) [5]	BRD9:CRBN-DDB1 dimerization, comparison in words [4]	BRD9 degradation / cellular potency, in words [6]	SMILES	formation of the BRD9:CRBN-DDB1 protein complex [4]	CRBN-DDB1 affinity, in words ([3]; comparison of phthalimide linkages)
3780	13.5	48.9	44270	42.5				COc1cc(-c2cn(C)c(=O)c3cc(C(=N)NC4CCS(=O)(=O)CC4)sc23)ccc1OCC(=O)NCCCCNC(=O)COc1cccc2c1C(=O)N(C1CCC(=O)NC1=O)C2=O (stereo not shown) [Compound I-1]	significantly induce formation of the complex	
3140	36.5	49.5	50182	44.9		reduced this activity		COc1cc(-c2cn(C)c(=O)c3cc(C(=N)NC4CCS(=O)(=O)CC4)sc23)ccc1OCC(=O)NCCCOCCOCCOCCCNC(=O)COc1cccc2c1C(=O)N(C1CCC(=O)NC1=O)C2=O (stereo not shown) [Compound I-3]	significantly induce formation of the complex	
1510	12.5	16	107794	54.0		significant improvement	significant improvement	COc1cc(-c2cn(C)c(=O)c3cc(C(=N)NC4CCS(=O)(=O)CC4)sc23)ccc1OCC(=O)N1CCC(C2CCN(C(=O)COc3cccc4c3C(=O)N(C3CCC(=O)NC3=O)C4=O)CC2)CC1 (stereo not shown) [Compound I-7]	significantly induce formation of the complex	
1110	11.5	17.6	46614	33.7		superior	superior	COc1cc(-c2cn(C)c(=O)c3cc(C(=N)NC4CCS(=O)(=O)CC4)sc23)ccc1OCC(=O)NCCCCCCCCNc1ccc2c(c1)C(=O)N(C1CCC(=O)NC1=O)C2=O (stereo not shown) [Compound I-9]	significantly induce formation of the complex	
> 50000	56.6	8.5	60256	8.39				COc1cc(-c2cn(C)c(=O)c3cnccc23)cc(OC)c1CN(C)CC(=O)NCCCCCCNc1ccc2c(c1)C(=O)N(C1CCC(=O)NC1=O)C2=O (stereo not shown) [Compound I-12]	significantly induce formation of the complex	
> 50000	83.1	8.35	139380	8.22				COc1cc(-c2cn(C)c(=O)c3cnccc23)cc(OC)c1CN(C)CC(=O)NCCCCCCCCNc1cccc2c1C(=O)N(C1CCC(=O)NC1=O)C2=O (stereo not shown) [Compound I-15]	significantly induce formation of the complex	
> 50000	43.2							COc1cc(-c2cn(C)c(=O)c3cnccc23)cc(OC)c1CN(C)CC(=O)NCCOCCOCCOCC(=O)N[C@@H](C(=O)N1C[C@@H](O)C[C@@H]1C(=O)NCc1ccc(-c2scnc2C)cc1)C(C)(C)C [Compound I-23]		
> 50000	48	14.8	58563	27.3				COc1cc(-c2cn(C)c(=O)c3cnccc23)cc(OC)c1CN(C)CC(=O)NCCCCCCCCNC(=O)COc1cccc2c1C(=O)N(C1CCC(=O)NC1=O)C2=O (stereo not shown) [Compound I-24]	significantly induce formation of the complex	

SMILES	IC50 [1] [nM]	IC50 [2] [nM]	IC50 [3] [nM]	BRD9:CRB9-DDB1 AUC [4]	BRD9:CRB9-DDB1 Cmax [4] [nM]	BRD9 protein level (immunoblot) [5]	BRD9:CRBN-DDB1 dimerization, comparison in words [4]	BRD9 degradation / cellular potency, in words [6]	formation of the BRD9:CRBN-DDB1 protein complex [4]	CRBN-DDB1 affinity, in words ([3]; comparison of phthalimide linkages)
COc1cc(-c2cn(C)c(=O)c3cc(C(=N)NC4CCS(=O)(=O)CC4)sc23)ccc1OCC(=O)NCCCCCCCCNC(=O)COc1cccc2c1C(=O)N(C1CCC(=O)NC1=O)C2=O (stereo not shown) [Compound I-2]	3390	18.9	43.7	71477	95.1	Marked protein loss	improved dimerization relative to the short four-carbon linked compound I-1		significantly induce formation of the complex	
COc1cc(-c2cn(C)c(=O)c3cc(C(=N)NC4CCS(=O)(=O)CC4)sc23)ccc1OCC(=O)NCCCCCCCCNc1cccc2c1C(=O)N(C1CCC(=O)NC1=O)C2=O (stereo not shown) [Compound I-5]	1560	15.5	10.8	67227	37.4	effectively downregulate BRD9 over a broad range of concentrations			significantly induce formation of the complex	
COc1cc(-c2cn(C)c(=O)c3cc(C(=N)NC4CCS(=O)(=O)CC4)sc23)ccc1OCC(=O)NCCCCCCOc1cccc2c1C(=O)N(C1CCC(=O)NC1=O)C2=O (stereo not shown) [Compound I-8]	7000	30	20.1	144813	111	Marked protein loss	further improved dimerization relative to compound I-2		significantly induce formation of the complex	slightly improved binding over acetamide ethers I-1 and I-2

Reference: patent US11285218B2, “Degradation of bromodomain-containing protein 9 (BRD9) by conjugation of BRD9 inhibitors with E3 ligase ligand and methods of use” (Dana-Farber Cancer Institute, Inc., priority 2016, dated 2022)
